Legend:
KAT-5 = KAT-5 (Homo sapiens (Human), UniProt Q92993); assay: KAT-5 biochemical inhibition assay (SAMDI mass spectrometry); conditions: Table 5
How it was run: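 Acetylation of 1 μM peptide by 9 nM enzyme with 0.5 μM acetyl-CoA (final) was run 90 min at 25° C in Tris pH 8.0 buffer with DTT, after compound preincubation at 2% DMSO. Formic acid stopped the reaction, and product was quantified by SAMDI mass spectrometry to derive IC50.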

KAT-6A = KAT-6A (Homo sapiens (Human), UniProt Q92794); assay: KAT-6A biochemical inhibition assay (SAMDI mass spectrometry); conditions: Table 5
How it was run: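 IC50 values came from SAMDI time-of-flight mass spectrometry after formic acid quench (0.5% final). Acetylation ran 90 min at 25 °C with 1 μM acetyl coenzyme A and 1 μM peptide substrate, following compound pre-incubation with 12.5 nM KAT-6A in Tris buffer pH 8.0 containing DTT, 2% DMSO final.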

KAT-7 = KAT-7 (Homo sapiens (Human), UniProt O95251); assay: KAT-7 biochemical inhibition assay (SAMDI mass spectrometry); conditions: Table 5
How it was run: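 Read-out was SAMDI time-of-flight MS of formic acid-quenched reactions (0.5% final). Compound dilutions (2% DMSO final) were pre-incubated with 6 nM KAT-7 in 50 mM Tris pH 8.0 with 1 mM DTT, then given 1 μM peptide substrate and 2 μM acetyl-CoA for 120 min at 25 °C. IC50 values were derived.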

[1] = tested on: H3K23 acetylation in CAL-120 cells; assay: Inhibition of acetylation of H3K23 in Human cell line CAL-120; format: cell-based; conditions: CAL-120 cell line, 3 hours, serial dilutions starting at 10 μM; FIG. 1
Experimental: Inhibition of acetylation of H3K23 in Human cell line CAL-120. Cell line CAL-120 was plated in eleven 10 cm tissue culture dishes at a cell density of 4×10^5 cells/cm^2 and treated with ten 2-fold serial dilutions of compound A-30 starting at 10 μM and one dish with DMSO (vehicle control) for 3 hours. Cells were tripsinized, washed twice with ice cold PBS and snap-frozen. Histones were extracted from cell pellets. Protein concentration was assessed and 60 ng of protein sample from histone extraction was prepared in triplicate in 100 μl coating buffer (0.05% w/v BSA in PBS) and added directly to high binding 96 well plates. Plates were left at 4° C. overnight to allow protein to adhere. Coating buffer with histones was discarded and plates blotted, and 100 μL per well of primary antibody solution of rabbit anti-H3K23ac antibody (Millipore 07-355) (1:600) and mouse anti-total H3 antibody (CST-14269) (1:500) in Odyssey buffer with 0.1% Tween 20 (v/v) was added to the wells of the plate and incubated for 1 hour. […]
Calculations were performed as follows: First, the ratio for each well was determined by:
[formula] Then, the average of the ratio values for each test well was calculated and used to determine the percent of H3K23Ac from vehicle for each test well in the plate: […]

KMS34 cells = assay: Long term proliferation assay (14-day), KMS34; format: cell-based; conditions: KMS-34, 336 h; KMS34, MM; 14-day timepoint; absolute IC50
Experimental: (§1) Long term proliferation assay. A panel of multiple myeloma (MM) and acute myeloid leukemia (AML) cell lines were tested in 14-day proliferation assays. Exponentially growing cells were plated, in triplicate, in 96-well plates at the appropriate cell density in a final volume of 150 μL. Cells were incubated in the presence of increasing concentrations of compound A-30. Viable cell number was determined at 0, 4, 7, 11, and 14 days using Calcein staining and using an Accumen instrument to enumerate the number of cells. On days of cell counts, growth media and compound A-30 were replaced, and cells split back to initial density. Total cell number is expressed as split-adjusted viable cells per well.
(§2) Calculations were performed as follows:
(§3) First, the inhibition of proliferation was calculated for each well at each treatment concentration at each timepoint with the following formula:
(§4) [formula] Then, for each cell line, concentration response curves were plotted as average and standard deviation from triplicate determinations as percent inhibition vs log of concentration of compound A-30. Absolute IC50 values (concentration of compound at which 50% inhibition occurs) were determined from the curve at each timepoint using Graphpad Prism software. An IC50 value of ≤10 μM is designated as “A”; an IC50 value of >10 μM is designated as “B”.

RPMI8226 cells = assay: Long term proliferation assay (14-day), RPMI8226; format: cell-based; conditions: Homo sapiens, RPMI-8226, 336 h; RPMI8226, MM; 14-day timepoint; absolute IC50
Experimental: as §1, §2, §3, §4

NOMO1 cells = assay: Long term proliferation assay (14-day), NOMO1; format: cell-based; conditions: Homo sapiens, NOMO-1, 336 h; NOMO1, AML; 14-day timepoint; absolute IC50
Experimental: as §1, §2, §3, §4

OCIAML3 cells = assay: Long term proliferation assay (14-day), OCIAML3; format: cell-based; conditions: Homo sapiens, OCI-AML-3, 336 h, 14-day timepoint, absolute IC50
Experimental: as §1, §2, §3, §4

KMS11 cells = assay: Long term proliferation assay (14-day), KMS11; format: cell-based; conditions: Homo sapiens, KMS-11, 336 h; KMS11, MM; 14-day timepoint; absolute IC50
Experimental: as §1, §2, §3, §4

LP1 cells = assay: Long term proliferation assay (14-day), LP1; format: cell-based; conditions: Homo sapiens, LP-1, 336 h; LP1, MM; 14-day timepoint; absolute IC50
Experimental: as §1, §2, §3, §4

OCIAML2 cells = assay: Long term proliferation assay (14-day), OCIAML2; format: cell-based; conditions: Homo sapiens, OCI-AML2, 336 h; OCIAML2, AML; 14-day timepoint; absolute IC50
Experimental: as §1, §2, §3, §4

MOLM13 cells = assay: Long term proliferation assay (14-day), MOLM13; format: cell-based; conditions: Homo sapiens, MOLM-13, 336 h; MOLM13, AML; 14-day timepoint; absolute IC50
Experimental: as §1, §2, §3, §4

SEM cells = assay: Long term proliferation assay (14-day), SEM; format: cell-based; conditions: 336 h, B-ALL, 14-day timepoint, absolute IC50
Experimental: as §1, §2, §3, §4

THP1 cells = assay: Long term proliferation assay (14-day), THP1; format: cell-based; conditions: Homo sapiens, THP-1, 336 h; THP1, AML; 14-day timepoint; absolute IC50
Experimental: as §1, §2, §3, §4

Sequence of KAT-5 (Q92993 other isoform, or with tags, fused parts or gaps): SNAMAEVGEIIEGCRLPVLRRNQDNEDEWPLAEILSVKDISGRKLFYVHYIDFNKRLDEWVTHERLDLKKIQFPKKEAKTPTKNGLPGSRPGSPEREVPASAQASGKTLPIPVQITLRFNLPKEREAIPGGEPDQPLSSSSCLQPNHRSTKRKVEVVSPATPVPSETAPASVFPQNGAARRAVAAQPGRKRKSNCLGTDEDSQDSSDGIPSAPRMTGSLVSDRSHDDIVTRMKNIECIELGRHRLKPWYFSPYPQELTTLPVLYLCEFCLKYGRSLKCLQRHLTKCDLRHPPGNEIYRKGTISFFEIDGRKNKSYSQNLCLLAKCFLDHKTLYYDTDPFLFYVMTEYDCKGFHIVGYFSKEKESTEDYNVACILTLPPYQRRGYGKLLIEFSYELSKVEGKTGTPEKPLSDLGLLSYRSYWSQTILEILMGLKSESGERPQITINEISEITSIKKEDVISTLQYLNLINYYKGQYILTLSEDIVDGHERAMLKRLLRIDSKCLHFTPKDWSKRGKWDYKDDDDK
Sequence of KAT-6A (Q92794 other isoform, or with tags, fused parts or gaps): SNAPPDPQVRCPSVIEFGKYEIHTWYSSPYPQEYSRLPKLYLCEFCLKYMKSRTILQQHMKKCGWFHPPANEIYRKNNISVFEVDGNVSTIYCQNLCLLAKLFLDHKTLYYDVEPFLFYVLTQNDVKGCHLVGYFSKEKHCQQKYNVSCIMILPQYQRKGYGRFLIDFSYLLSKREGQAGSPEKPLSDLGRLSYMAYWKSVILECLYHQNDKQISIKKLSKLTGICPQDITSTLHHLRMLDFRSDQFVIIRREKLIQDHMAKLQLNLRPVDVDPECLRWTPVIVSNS
Sequence of KAT-7 (O95251 other isoform, or with tags, fused parts or gaps): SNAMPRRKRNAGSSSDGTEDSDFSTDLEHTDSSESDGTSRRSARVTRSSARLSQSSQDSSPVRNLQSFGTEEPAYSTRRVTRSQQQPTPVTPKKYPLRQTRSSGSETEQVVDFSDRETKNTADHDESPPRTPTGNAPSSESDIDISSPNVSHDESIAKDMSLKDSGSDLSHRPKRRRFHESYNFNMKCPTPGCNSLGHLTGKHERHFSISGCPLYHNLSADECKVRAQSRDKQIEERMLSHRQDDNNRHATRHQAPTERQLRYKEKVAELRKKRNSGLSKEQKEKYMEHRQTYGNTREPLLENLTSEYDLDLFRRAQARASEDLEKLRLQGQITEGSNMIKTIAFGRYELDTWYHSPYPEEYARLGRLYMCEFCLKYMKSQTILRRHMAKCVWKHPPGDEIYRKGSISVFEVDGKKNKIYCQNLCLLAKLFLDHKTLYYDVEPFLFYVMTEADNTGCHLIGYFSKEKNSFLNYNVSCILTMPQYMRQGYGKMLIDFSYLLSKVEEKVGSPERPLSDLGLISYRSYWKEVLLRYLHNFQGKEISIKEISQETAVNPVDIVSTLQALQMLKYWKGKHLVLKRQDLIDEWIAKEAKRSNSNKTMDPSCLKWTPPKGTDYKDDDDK

IC50 (KAT-5): ≤ 10 µM
IC50 (KAT-6A): ≤ 1 µM
IC50 (KAT-7): ≤ 10 µM
IC50 (RPMI8226 cells): ≤ 10 µM
IC50 (MOLM13 cells): > 10 µM
IC50 (THP1 cells): > 10 µM
Compound: COCc1cc(Cl)c(F)c(C(=O)NNS(=O)(=O)c2cccc(O)c2)c1 [Compound A-30]
inhibition of acetylation of H3K23 [1]: inhibition of acetylation of H3 K23
IC50 (KMS34 cells): ≤ 10 µM
IC50 (NOMO1 cells): ≤ 10 µM
IC50 (OCIAML3 cells): ≤ 10 µM
IC50 (KMS11 cells): ≤ 10 µM
IC50 (LP1 cells): ≤ 10 µM
IC50 (OCIAML2 cells): > 10 µM
IC50 (SEM cells): > 10 µM
